Earlier results as cited in patent publication US20070066580A1, “Novel aldosterone antagonists and uses thereof” (Recordati Ireland Limited, priority 2005, published 2007).

Assays:
[1] = target: T1, MR (Homo sapiens, UniProt P08235); conditions: cited from earlier work
T1 sequence (P08235 1-984): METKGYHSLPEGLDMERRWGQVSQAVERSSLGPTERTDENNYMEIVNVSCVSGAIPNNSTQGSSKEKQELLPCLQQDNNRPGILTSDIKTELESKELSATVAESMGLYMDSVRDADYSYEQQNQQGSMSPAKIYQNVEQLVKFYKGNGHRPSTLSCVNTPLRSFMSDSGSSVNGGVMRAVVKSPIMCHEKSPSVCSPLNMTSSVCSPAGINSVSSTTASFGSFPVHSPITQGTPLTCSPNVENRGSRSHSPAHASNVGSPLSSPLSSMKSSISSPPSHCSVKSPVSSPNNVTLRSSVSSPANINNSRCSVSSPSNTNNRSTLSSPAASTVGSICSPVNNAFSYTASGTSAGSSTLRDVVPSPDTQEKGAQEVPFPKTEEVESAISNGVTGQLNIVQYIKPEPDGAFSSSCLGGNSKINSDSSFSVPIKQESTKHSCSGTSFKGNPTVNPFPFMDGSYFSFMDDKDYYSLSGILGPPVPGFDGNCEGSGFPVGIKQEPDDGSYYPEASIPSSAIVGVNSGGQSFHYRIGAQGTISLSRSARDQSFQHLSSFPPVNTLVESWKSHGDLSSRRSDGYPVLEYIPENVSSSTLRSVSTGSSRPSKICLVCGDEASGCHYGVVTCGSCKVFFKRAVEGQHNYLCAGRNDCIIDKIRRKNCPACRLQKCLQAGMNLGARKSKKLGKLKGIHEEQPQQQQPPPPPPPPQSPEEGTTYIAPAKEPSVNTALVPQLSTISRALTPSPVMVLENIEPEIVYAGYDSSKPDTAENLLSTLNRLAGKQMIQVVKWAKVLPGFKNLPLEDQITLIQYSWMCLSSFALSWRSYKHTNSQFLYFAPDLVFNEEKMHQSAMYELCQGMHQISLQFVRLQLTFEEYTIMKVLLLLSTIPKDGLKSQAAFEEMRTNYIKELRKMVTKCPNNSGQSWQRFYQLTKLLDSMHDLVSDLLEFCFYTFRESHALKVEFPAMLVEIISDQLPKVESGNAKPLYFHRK

[2] = cited from earlier work
[3] = severe heart failure (NYHA class IV), plus diuretics, versus placebo plus diuretics; cited from earlier work

SMILES: C[C@]12CCC(=O)C=C1[C@@H]1C[C@@H]1[C@H]1[C@@H]3[C@@H]4C[C@@H]4[C@@]4(CCC(=O)O4)[C@@]3(C)CC[C@@H]12
- antimineralocorticoid potency, times more potent than spironolactone [1]: approximately 7.5 times

SMILES: COC(=O)[C@@H]1CC2=CC(=O)CC[C@]2(C)[C@@]23O[C@@H]2C[C@@]2(C)[C@@H](CC[C@@]24CCC(=O)O4)[C@H]13 [eplerenone]
- potency in vivo as % of spironolactone [2]: 50-75%

SMILES: CC(=O)S[C@@H]1CC2=CC(=O)C=C[C@]2(C)[C@H]2CC[C@@]3(C)[C@@H]([C@@H]4C[C@@H]4[C@@]34CCC(=O)O4)[C@H]12 [Mespirenone]
- anti-MR effectiveness compared with spironolactone [1]: about three times higher

SMILES: CCOC(=O)[C@H](CCc1ccccc1)N[C@@H](C)C(=O)N1CCC[C@H]1C(=O)O [enalapril]
- reduction of mortality at one year [3]: 31%
